As for `Cn1ncnc1COc1nc2c(-c3c(F)cccc3F)nncn2c1-c1ccccc1`, the melting point (as a rule, the temperature, or range, at which the solid turns liquid) turned out to be 190 °C. For `Cn1ncnc1COc1nc2c(-c3cc(F)ccc3F)nncn2c1-c1ccccc1`, the melting point was 200 °C. With `Cn1ncnc1COc1nc2c(-c3ccccc3)nncn2c1-c1cccc(Cl)c1`, the melting point fell in the range of 80 to 84 °C. Take `Cc1nnc(-c2ccccc2)c2nc(OCc3ncnn3C)c(C3CCCC3)n12`: the melting point amounted to 137 °C. Compound `Cn1ncnc1COc1nc2c(-c3ccccc3F)nncn2c1-c1ccccc1` displayed a melting point of 195 °C. Regarding `Cn1ncnc1COc1nc2c(-c3ccccc3)nncn2c1-c1ccccc1` (hydrate or solvate), the melting point came out at 179 °C. Take `Cc1nnc(-c2ccccc2)c2nc(OCc3ncnn3C)c(C3CCC3)n12`: the melting point came out at 160 °C. The compound `Cn1ncnc1COc1nc2c(-c3ccccc3F)nncn2c1C1CCC1` gave a melting point of 120 °C.

The compound `Cn1ncnc1COc1nc2c(-c3ccc(F)cc3)nncn2c1-c1ccccc1` came in with a melting point of 130 °C. For `Cn1cnc(COc2nc3c(-c4ccccc4F)nncn3c2-c2ccccc2)n1`, the melting point came to 186 °C. As for `CCn1ncnc1COc1nc2c(-c3ccccc3)nnc(C)n2c1C1CCCC1`, the melting point was 94 to 96 °C.

These data come from patent US6608062B1 (dated 2003).
